Patent publication US7659404B2, “Broad spectrum 2-(substituted-amino)-benzothiazole sulfonamide HIV protease inhibitors” (Tibotec Pharmaceuticals Ltd., priority 2001, dated 2010)
Like-named read-outs stand apart in the source and are kept apart here.

Columns and labels:
[1] = system: virus strain F (R13025); assay: microbe, parasite or virus in culture; type: cell-based, HIV; details: FR=EC50(mutant strain)/EC50(HIV-1 strain LAI); strain F
Procedure, shortened: (§1)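 MT4 cells, HIV or mock infection, 5 d with compound dilutions; MTT readout, formazan in isopropanol, A540. EC50/EC90 = conc. protecting 50/90% of cells from CPE; CC50 from mock-infected cells. FR = EC50 mutant/EC50 LAI.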

[2] = system: virus strain S (R13080); assay: microbe, parasite or virus in culture; type: cell-based, HIV; details: FR=EC50(mutant strain)/EC50(HIV-1 strain LAI); strain S
Procedure, shortened: as §1

[3] = system: HIV-1 strain LAI; assay: Cellular anti-HIV assay in MT4 cells (MTT), wild type laboratory strain; type: cell-based; details: read-out: EC50 value against HIV-1 strain LAI
Procedure: The compounds of the present invention were examined for anti-viral activity in a cellular assay. […] The cellular assay was performed according to the following procedure.
Cellular Assay Experimental Method:
HIV- or mock-infected MT4 cells were incubated for five days in the presence of various concentrations of the inhibitor. At the end of the incubation period, all HIV-infected cells have been killed by the replicating virus in the control cultures in the absence of any inhibitor. Cell viability is measured by measuring the concentration of MTT, a yellow, water soluble tetrazolium dye that is converted to a purple, water insoluble formazan in the mitochondria of living cells only. Upon solubilization of the resulting formazan crystals with isopropanol, the absorbance of the solution is monitored at 540 nm. The values correlate directly to the number of living cells remaining in the culture at the completion of the five day incubation. The inhibitory activity of the compound was monitored on the virus-infected cells and was expressed as EC50 and EC90. These values represent the amount of the compound required to protect 50% and 90%, respectively, of the cells from the cytopathogenic effect of the virus. The toxicity of the compound was measured on the mock-infected cells and was expressed as CC50, which represents the concentration of compound required to inhibit the growth of the cells by 50%. The selectivity index (SI) (ratio CC50/EC50) is an indication of the selectivity of the anti-HIV activity of the inhibitor.

[4] = system: clinically isolated HIV strain O; type: cell-based; details: FR=EC50(mutant strain)/EC50(HIV-1 strain LAI)
Procedure, shortened: as §1

[5] = system: clinically isolated HIV strain I; type: cell-based; details: FR=EC50(mutant strain)/EC50(HIV-1 strain LAI)
Procedure, shortened: as §1

[6] = system: clinically isolated HIV strain J; type: cell-based; details: FR=EC50(mutant strain)/EC50(HIV-1 strain LAI)
Procedure, shortened: as §1

[7] = system: clinically isolated HIV strain T; type: cell-based; details: FR=EC50(mutant strain)/EC50(HIV-1 strain LAI)
Procedure, shortened: as §1

[8] = system: clinically isolated HIV strain H; type: cell-based; details: FR=EC50(mutant strain)/EC50(HIV-1 strain LAI)
Procedure, shortened: as §1

[9] = Human immunodeficiency virus 1, 120 h, MT4 cells, five days, MTT
[10] = Human immunodeficiency virus 1, MT4, 120 h

SMILES: CCN1CCCC1CNc1nc2ccc(S(=O)(=O)N(CC(C)C)C[C@@H](O)[C@H](Cc3ccccc3)NC(=O)O[C@H]3CO[C@H]4OCC[C@H]43)cc2s1 (stereo partly shown) [Compound 93]
- fold resistance (FR), strain F [1]: 1.1
- fold resistance (FR), strain S [2]: 4.68
- EC50 [3, 9]: < 50 nM

SMILES: CC(C)CN(CC(O)C(Cc1ccccc1)NC(=O)OC1COC2OCCC12)S(=O)(=O)c1ccc2nc(NCC[N+](C)(C)[O-])sc2c1 (stereo not shown) [Compound 27]
- fold resistance (FR), strain F [1]: 1.4
- fold resistance (FR), strain S [2]: 5.1
- EC50 [3, 10]: > 500 nM
- fold resistance (FR), strain O [4]: 0.6
- fold resistance (FR), strain I [5]: 1.3
- fold resistance (FR), strain J [6]: 0.7
- fold resistance (FR), strain T [7]: 5.4
- fold resistance (FR), strain H [8]: 1.2

SMILES: CC(C)CN(CC(O)C(Cc1ccccc1)NC(=O)OC1COCC1N(C)C)S(=O)(=O)c1ccc2nc(NCCN(C)C)sc2c1 (stereo not shown) [Compound 44]
- fold resistance (FR), strain F [1]: 80.2
- fold resistance (FR), strain S [2]: 89.3
- EC50 [3, 10]: 50 to 500 nM
- fold resistance (FR), strain O [4]: 11.2
- fold resistance (FR), strain I [5]: 7.5
- fold resistance (FR), strain J [6]: 29.5
- fold resistance (FR), strain T [7]: 89.3
- fold resistance (FR), strain H [8]: 29.4

SMILES: CC(=O)N(C)c1nc2ccc(S(=O)(=O)N(Cc3ccccn3)CC(O)C(Cc3ccccc3)NC(=O)OC3COC4OCCC34)cc2s1 (stereo not shown) [Compound 33]
- fold resistance (FR), strain F [1]: 7.6
- fold resistance (FR), strain S [2]: 467.3
- EC50 [3, 9]: < 50 nM
- fold resistance (FR), strain O [4]: 3.4
- fold resistance (FR), strain I [5]: 7.1
- fold resistance (FR), strain J [6]: 5.9
- fold resistance (FR), strain T [7]: 467.3
- fold resistance (FR), strain H [8]: 6.8

SMILES: CC(=O)Nc1nc2ccc(S(=O)(=O)N(CCNc3ccccn3)CC(O)C(Cc3ccccc3)NC(=O)OC3COC4OCCC34)cc2s1 (stereo not shown) [Compound 29]
- EC50 [3, 10]: 50 to 500 nM

SMILES: CC(=O)N(C)c1nc2ccc(S(=O)(=O)N(Cc3ccccn3)CC(O)C(Cc3ccccc3)NC(=O)OCc3c(C)cccc3C)cc2s1 (stereo not shown) [Compound 31]
- EC50 [3, 10]: > 500 nM

SMILES: CC(C)CN(C[C@@H](O)[C@H](Cc1ccccc1)NC(=O)OCc1cccnc1)S(=O)(=O)c1ccc2nc(NC(=O)CN3CCCC3)sc2c1 [Compound 61]
- fold resistance (FR), strain F [1]: 32.7
- fold resistance (FR), strain S [2]: 80.0
- fold resistance (FR), strain O [4]: 7.1
- fold resistance (FR), strain I [5]: 4.8
- fold resistance (FR), strain J [6]: 10.6
- fold resistance (FR), strain T [7]: 1090.0
- fold resistance (FR), strain H [8]: 5.2

SMILES: CC(=O)Nc1nc2ccc(S(=O)(=O)N(CC(C)C)C[C@@H](O)[C@H](Cc3ccccc3)NC(=O)c3cc(N)ccc3C)cc2s1 [Compound 73]
- fold resistance (FR), strain F [1]: 43.1
- fold resistance (FR), strain S [2]: 966.6
- fold resistance (FR), strain O [4]: 20.7
- fold resistance (FR), strain I [5]: 12.1
- fold resistance (FR), strain J [6]: 14.1
- fold resistance (FR), strain T [7]: 966.6
- fold resistance (FR), strain H [8]: 9.8

SMILES: Cc1cc(C#N)cc(C)c1OCC(=O)N[C@@H](Cc1ccccc1)[C@H](O)CN(CC(C)C)S(=O)(=O)c1ccc2nc(NC(=O)CN3CCCC3)sc2c1 [Compound 75]
- fold resistance (FR), strain F [1]: 16.3
- fold resistance (FR), strain S [2]: 19.0
- fold resistance (FR), strain O [4]: 18.7
- fold resistance (FR), strain I [5]: 7.4
- fold resistance (FR), strain J [6]: 19.4
- fold resistance (FR), strain T [7]: 93.6
- fold resistance (FR), strain H [8]: 3.6

SMILES: CC(C)CN(C[C@@H](O)[C@H](Cc1ccccc1)NC(=O)OCc1cccnc1)S(=O)(=O)c1ccc2nc(NCCN3CCCC3)sc2c1 [Compound 41]
- fold resistance (FR), strain F [1]: 44.4
- fold resistance (FR), strain S [2]: 37.6
- fold resistance (FR), strain O [4]: 2.0
- fold resistance (FR), strain I [5]: 2.5
- fold resistance (FR), strain J [6]: 5.6
- fold resistance (FR), strain T [7]: 252.5
- fold resistance (FR), strain H [8]: 2.3

SMILES: CC(=O)N(C)c1nc2ccc(S(=O)(=O)N(CC(C)C)C[C@@H](O)[C@H](Cc3ccccc3)NC(=O)c3cccc(N)c3C)cc2s1 [Compound 82]
- fold resistance (FR), strain F [1]: 13.8
- fold resistance (FR), strain S [2]: 17.9
- fold resistance (FR), strain O [4]: 8.0
- fold resistance (FR), strain I [5]: 4.4
- fold resistance (FR), strain J [6]: 5.5
- fold resistance (FR), strain T [7]: 214.1
- fold resistance (FR), strain H [8]: 5.0

SMILES: CC(=O)N(C)c1nc2ccc(S(=O)(=O)N(CC(C)C)C[C@@H](O)[C@H](Cc3ccccc3)NC(=O)c3cccc(O)c3C)cc2s1 [Compound 83]
- fold resistance (FR), strain F [1]: 106.6
- fold resistance (FR), strain S [2]: 132.1
- fold resistance (FR), strain O [4]: 1.5
- fold resistance (FR), strain I [5]: 7.4
- fold resistance (FR), strain J [6]: 8.4
- fold resistance (FR), strain T [7]: 438.6
- fold resistance (FR), strain H [8]: 4.6

SMILES: CC(=O)Nc1nc2ccc(S(=O)(=O)N(CC(C)C)C[C@@H](O)[C@H](Cc3ccccc3)NC(=O)Cc3cc(C)no3)cc2s1 [Compound 84]
- fold resistance (FR), strain F [1]: 54.3
- fold resistance (FR), strain S [2]: 195.4
- fold resistance (FR), strain O [4]: 6.1
- fold resistance (FR), strain I [5]: 13.0
- fold resistance (FR), strain J [6]: 19.6
- fold resistance (FR), strain T [7]: 195.4
- fold resistance (FR), strain H [8]: 11.7

SMILES: Cc1c(N)cccc1C(=O)N[C@@H](Cc1ccccc1)[C@H](O)CN(CC(C)C)S(=O)(=O)c1ccc2nc(NCCN3CCCC3)sc2c1 [Compound 45]
- fold resistance (FR), strain F [1]: 17.3
- fold resistance (FR), strain S [2]: 19.9
- fold resistance (FR), strain O [4]: 1.3
- fold resistance (FR), strain I [5]: 4.0
- fold resistance (FR), strain J [6]: 1.1
- fold resistance (FR), strain T [7]: 103.0
- fold resistance (FR), strain H [8]: 1.2

SMILES: CC(C)CN(C[C@@H](O)[C@H](Cc1ccccc1)NC(=O)O[C@H]1CO[C@H]2OCC[C@H]21)S(=O)(=O)c1ccc2nc(N3CCN(C)C(=O)C3)sc2c1 [Compound 24]
- fold resistance (FR), strain F [1]: 16.6
- fold resistance (FR), strain S [2]: 24.1
- fold resistance (FR), strain O [4]: 1.6
- fold resistance (FR), strain I [5]: 1.1
- fold resistance (FR), strain J [6]: 4.5
- fold resistance (FR), strain T [7]: 174.9
- fold resistance (FR), strain H [8]: 4.7

SMILES: CC(C)CN(C[C@@H](O)[C@H](Cc1ccccc1)NC(=O)OCc1cncs1)S(=O)(=O)c1ccc2nc(NCCN3CCCC3)sc2c1.O=C(O)C(F)(F)F [Compound 50]
- fold resistance (FR), strain F [1]: 8.6
- fold resistance (FR), strain S [2]: 27.9
- fold resistance (FR), strain O [4]: 3.5
- fold resistance (FR), strain I [5]: 1.7
- fold resistance (FR), strain J [6]: 7.0
- fold resistance (FR), strain T [7]: 165.5
- fold resistance (FR), strain H [8]: 1.4

SMILES: CC(=O)N(C)c1nc2ccc(S(=O)(=O)N(CC(C)C)C[C@@H](O)[C@H](Cc3ccccc3)NC(=O)O[C@H]3CCOC3)cc2s1 [Compound 79]
- fold resistance (FR), strain F [1]: 113.0
- fold resistance (FR), strain S [2]: 313.0
- fold resistance (FR), strain O [4]: 7.4
- fold resistance (FR), strain I [5]: 3.9
- fold resistance (FR), strain J [6]: 9.8
- fold resistance (FR), strain T [7]: 893.1
- fold resistance (FR), strain H [8]: 12.1
